Measured values reported in patent EP2002836B1, “Cyclocondensed azaindoles active as kinase inhibitors” (Nerviano Medical Sciences S.r.l., priority 2007, dated 2008).

Columns and labels:
AKT2 = biological target: T1, AKT2 (Homo sapiens, UniProt P31751); experiment: Biochemical assay for inhibitors of AKT2 kinase activity (33P trans-phosphorylation, Dowex resin); conditions: 10 nM enzyme, 396 microM ATP, 8.5 microM peptide substrate; read-out: AKT2 IC50 (µM) Biochem assay
T1 construct: made in house
T1 sequence (P31751 whole entry, species assumed): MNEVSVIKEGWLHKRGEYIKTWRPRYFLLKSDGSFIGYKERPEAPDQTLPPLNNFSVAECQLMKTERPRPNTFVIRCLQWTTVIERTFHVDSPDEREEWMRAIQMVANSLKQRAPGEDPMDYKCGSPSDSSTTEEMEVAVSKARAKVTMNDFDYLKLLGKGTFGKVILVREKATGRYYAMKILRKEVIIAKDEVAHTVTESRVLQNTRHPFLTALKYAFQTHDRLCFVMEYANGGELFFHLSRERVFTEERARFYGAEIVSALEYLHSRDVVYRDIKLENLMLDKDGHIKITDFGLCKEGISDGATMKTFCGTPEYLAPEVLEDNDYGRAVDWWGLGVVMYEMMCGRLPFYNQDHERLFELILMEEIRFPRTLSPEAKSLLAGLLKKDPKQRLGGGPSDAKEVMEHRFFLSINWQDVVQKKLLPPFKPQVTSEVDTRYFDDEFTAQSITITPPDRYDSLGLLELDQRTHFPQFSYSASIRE
Experimental: (§1) The N-terminal GST fusion proteins used for the assays were prepared according to the methods described in Kumar, C. C. Biochem. Biophys. ACTA 2001, 1526, 257-268, and in Alessi, D. R.. Biochem. J. 1998 331, 299-308.
(§2) The in vitro kinase inhibition assay was conducted in the same way as described for AKT1. The kinase assay was run with a final enzyme concentration of 10 nM, in the presence of 396 microM ATP, 0.88 nM ^33P-γ-ATP and 8.5 microM substrate, a carboxy-terminally biotinylated peptide of the following sequence: ARKRERTYSFGHHA-biotin. The peptide was obtained in batches of >95% peptide purity from PRIMM labs Inc. (Boston MA, USA).

AKT3 = AKT3 (Homo sapiens, UniProt Q9Y243); experiment: Biochemical assay for inhibitors of AKT3 kinase activity (33P trans-phosphorylation, Dowex resin); conditions: 1 nM enzyme, 180 microM ATP, 28.5 microM peptide substrate; read-out: AKT3 IC50 (µM) Biochem assay
Chain of AKT3 (Q9Y243 2-479): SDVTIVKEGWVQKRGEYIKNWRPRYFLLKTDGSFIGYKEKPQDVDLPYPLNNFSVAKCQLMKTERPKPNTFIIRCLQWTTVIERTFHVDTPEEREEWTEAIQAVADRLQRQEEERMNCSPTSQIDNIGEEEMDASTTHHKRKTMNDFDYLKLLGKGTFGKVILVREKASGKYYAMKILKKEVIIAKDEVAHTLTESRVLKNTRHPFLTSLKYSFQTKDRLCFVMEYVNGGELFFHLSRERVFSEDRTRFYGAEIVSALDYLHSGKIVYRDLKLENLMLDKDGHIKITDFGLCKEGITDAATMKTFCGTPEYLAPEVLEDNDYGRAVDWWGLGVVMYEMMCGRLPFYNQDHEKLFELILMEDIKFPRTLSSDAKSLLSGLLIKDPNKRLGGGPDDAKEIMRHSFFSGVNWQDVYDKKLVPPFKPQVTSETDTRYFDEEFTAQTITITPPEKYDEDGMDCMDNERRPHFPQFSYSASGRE
Experimental: as §1
as §2, with “1” for “10”, “180” for “396”, “28.5” for “8.5”

AKT1 = AKT1 (Homo sapiens, UniProt P31749); experiment: Biochemical assay for inhibitors of AKT1 kinase activity (33P trans-phosphorylation, Dowex resin); set-up: made in house; conditions: 5 nM enzyme, 132 microM ATP, 30 microM peptide substrate; read-out: AKT1 IC50 (µM) Biochem assay
Chain of AKT1 (P31749 whole entry): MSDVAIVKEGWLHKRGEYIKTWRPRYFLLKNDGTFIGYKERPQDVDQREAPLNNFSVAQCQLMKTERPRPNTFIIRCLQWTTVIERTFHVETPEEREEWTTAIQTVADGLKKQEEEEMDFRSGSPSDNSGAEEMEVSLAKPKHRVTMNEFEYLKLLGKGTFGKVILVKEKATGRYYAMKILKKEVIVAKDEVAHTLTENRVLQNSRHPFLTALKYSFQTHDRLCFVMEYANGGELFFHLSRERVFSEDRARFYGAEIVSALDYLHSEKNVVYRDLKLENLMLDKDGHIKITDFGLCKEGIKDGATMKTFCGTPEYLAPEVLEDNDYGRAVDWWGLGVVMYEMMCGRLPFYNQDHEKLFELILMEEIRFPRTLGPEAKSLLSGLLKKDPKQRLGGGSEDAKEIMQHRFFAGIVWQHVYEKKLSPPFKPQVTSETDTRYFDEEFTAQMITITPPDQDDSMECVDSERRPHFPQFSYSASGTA
Experimental: as §1
The inhibitory activity of putative kinase inhibitors and the potency of selected compounds were determined using a trans-phosphorylation assay.
A specific substrate was incubated with the kinase in appropriate buffer conditions in the presence of ATP traced with ^33P-γ-ATP (gamma phosphate-labeled, Redivue™ Code Number AH9968, 1000-3000Ci/mmole, Amersham Biosciences Piscataway, NJ, USA), optimal cofactors and test compound.
At the end of the phosphorylation reaction, more than 98% cold and radioactive ATP were captured by an excess of Dowex ion exchange resin. The resin was allowed to settle to the bottom of reaction wells by gravity. Supernatant, containing substrate peptide, was subsequently withdrawn and transferred into a counting plate, and radioactivity (corresponding to phosphate incorporated into peptide) was evaluated by β-counting.
Kinase buffer was composed of 50 mM TRIS pH 7.5 containing10 mM MgCl2, 1 mM DTT, 3 microM Na3VO4, and 0.2 mg/mL BSA. 3X KB is buffer of the same composition and pH as KB, but with three times the concentration of each component. iii.Assay conditions (final concentrations) for AKT1.
as §2, with “The” for “The in vitro kinase inhibition assay was conducted in the same way as described for AKT1. The”, “5” for “10”, “132” for “396”, “30” for “8.5”
The "test" mixture of 15 microL consisting of: • 1) 5 µl/well of 3x Enzyme mix (done in Kinase Buffer 3X), • 2) 5 µl/well of 3x substrate and ATP mix (done in ddH2O), together with ^33P-γ-ATP, • 3) 5 µl/well of 3x test compounds (diluted into ddH2O - 3% DMSO).
For % inhibition studies, dilution plates at 1 mM, 10 microM and 100 microM were prepared in 100% DMSO, then diluted to 3X final desired concentration (30, 3 and 0.3 microM) in ddH2O, 3% DMSO. A Multimek 96 (Beckman Coulter, Inc. 4300 N. Harbor Boulevard, P.O. Box 3100 Fullerton, CA 92834-3100 USA) was used for compound pipetting into test plates.
For IC50 determination, starting solutions of 30 microM compound in 3% DMSO were derived from 1 mM/100% DMSO stock solutions. These 30 microM starting solutions were used for generation of a further 9 serial 1/3 dilutions in ddH20, 3% DMSO, so as to generate a 10-point dilution curve at 3X the final assay concentration. Serial dilution was conducted in 96-well plates using a Biomek 2000 (Beckman Coulter) system. Dilution curves of 7 compounds/plate were prepared, and each plate also included a 10-point dilution curve of Staurosporine, as well as several negative and positive control wells.
384-well plates, V bottom (test plates) are prepared with 5 µl of the compound dilution (3X) and then placed onto a PlateTrak 12 robotized station (Perkin Elmer; the robot has one 384-tips pipetting head for starting the assay plus one 96-tips head for dispensing the resin) together with one reservoir for the Enzyme mix (3X) and one for the ATP mix (3X).
At the start of the run, the robot aspirates 5 µl of ATP mix, makes an air gap inside the tips (3 µl) and aspirates 5 µl of AKT mix. The following dispensation into the plates allows the kinase reaction to start upon 3 cycles of mixing, done by the robot itself.
The robot incubates the plates for 60 minutes at room temperature, and then stops the reaction by pipetting 70 µl of dowex resin suspension into the reaction mix. Three cycles of mixing are done immediately after the addition of the resin.
Another mixing cycle is performed after all the plates are stopped, this time using normal tips: the plates are then allowed to rest for about one hour in order to maximize ATP capture. […]

IC50 (AKT2) [µM]	IC50 (AKT3) [µM]	IC50 (AKT1) [µM]	Compound
1.86	1.06	0.431	O=C(N[C@H](CN1CCCC1)c1ccccc1)c1cc2c3c(nccc3c1)NC2 [Cpd. 8, N-[(1S)-1-phenyl-2-pyrrolidin-1-ylethyl]-1,2-dihydropyrrolo[4,3,2-ij]isoquinoline-4-carboxamide]
0.797	0.717	0.132	NC[C@H](Cc1ccccc1)NC(=O)c1cc2c3c(nccc3c1)NC2 [Cpd. 7, N-[(1S)-2-amino-1-benzylethyl]-1,2-dihydropyrrolo[4,3,2-ij]isoquinoline-4-carboxamide]
